# Entries after “also recorded” stand apart in the source; their conditions may differ.
# How the values were obtained:
# [1] = tested on: Medicago truncatula roots and hypocotyls; assay: Endophytic colonization of Medicago truncatula seedlings (CFU recovered from interior); assay type: in vivo
# From the text: (§1) Bacterial strains and inoculum preparation. BA3104 was constructed by sequential P22 transduction into 14028 using a P22HTint lysate grown on the SL3201 fliC::Tn10 fliB::MudJ strain kindly provided by Dr. Allison O'Brien (Schmitt et al., 2001). pHC112 was constructed by amplifying the spaS gene of 14028 (nucleotides 28 to 1327 of GenBank accession number AE008832) using Taq DNA polymerase. The spaS fragment was cloned into pCR-2.1-TOPO (Invitrogen), removed using EcoRI, and cloned into the EcoRI site of pWSK29 (Wang and Kushner 1991). pHC113 was constructed in the same way except that the sipB gene was amplified (nucleotides 18133 to 20138 of GenBank accession number AE008831). Bacterial strains were cultured and inoculum prepared as described previously (Dong et al., 2003a; Dong et al., 2003b) with the exception of the experiments designed to estimate the number of infection events. For these experiments the inoculum strains were composed of a mixture of either 14028 or Kp342 with and without a constitutively expressed GFP gene.
# (§2) Seed surface sterilization, germination, inoculation, plant culture and harvest. The manipulation of plants, from seed surface sterilization to plant harvest, were carried out by methods developed previously (Dong et al., 2003a; Dong et al., 2003b).
# (§3) Determination of microbial population within surface sterilized plant tissue. With the exception of the M. truncatula sickle experiment, where the whole plant tissue was used to determine microbial populations, only the root and hypocotyl were examined for bacterial colonization. The procedures used for surface sterilization, determination of endophytic microbial populations and statistical analysis were done as described previously (Dong et al., 2003a; Dong et al., 2003b).
# (§4) Assurance of endophytic colonization results. To ensure the endophytic colonization numbers presented reflect only the number of cells within the interior of plant tissue, previously developed methods were followed (Dong et al., 2003a; Dong et al., 2003b).
# Induction of ethylene response in seedlings. To induce ethylene responses, seedlings were cultured in growth medium as described previously (Dong et al., 2003a) supplemented with 5 μM 1-aminocyclopropane-1-carboxylic acid (ACC). ACC was dissolved in water and filter sterilized prior to its addition to autoclaved plant growth media. In most experiments, seedlings were exposed to media containing ACC for 12 hours prior to inoculation.
# Preparation and use of 1-methylcyclopropene (1-MCP). The gaseous ethylene action inhibitor, 1-MCP, was prepared and stored as described by Hall et al. (2000). 1-MCP was generated from ETHYLBLOC, which was provided by A. B. Bleecker (University of Wisconsin—Madison). The concentration of 1-MCP in ETHYLBLOC is of 0.14%. A stock of 1-MCP of 100 ppm was created in a serum bottle of 121.5 ml in volume. This was accomplished by adding 19.44 mg of ETHYLBLOC and 0.5 ml of hot H2O to the serum bottle and set to rest for 15 minutes. The stock was used to dispense 0.3 ml of headspace gas to 30 ml stopped test tubes where the plants were cultured, resulting in a final concentration of 1 ppm per tube. The plant cultures were placed under conditions as described previously (Dong et al., 2003a; Dong et al., 2003b) with the exception of a rubber stopper used to conceal 1-MCP. The stoppers were removed daily, flushed with air, stopped again and finally freshly prepared 1-MCP was added to the desired final concentration.
# Triticum aestivum roots = assay: Endophytic colonization of wheat seedlings (CFU recovered from interior of roots and hypocotyls); assay type: in vivo; conditions: varying amounts of ACC
# From the text: as §1, §2
# Determination of microbial population within surface sterilized plant tissue. […]
# [2] = tested on: Medicago sativa roots and hypocotyls; assay: Endophytic colonization of alfalfa seedlings (CFU recovered from interior of roots and hypocotyls); assay type: in vivo
# From the text: as §1, §2, §3, §4
# Induction of ethylene response in seedlings. […]
# PR1::GUS = assay: GUS histochemical staining and GUS fluorogenic assay in PR1::GUS plants; assay type: in vivo, Arabidopsis thaliana; conditions: histochemical staining and fluorogenic assays
# Description: GUS histochemical staining and GUS fluorogenic assay. Roots of transgenic Arabidopsis thaliana Col-0 harboring a pathogenesis-related 1 (PR1) gene promoter fused to the bacterial uidA (β-glucuronidase) reporter gene (PR1::GUS) were inoculated with 10^7 CFU S. enterica 14028, the 14028 sipB mutant, and the complemented sipB mutant,. Exogenous application of salicylic acid (5 mM) and infiltration of leaves with 10^7 CFU of an avirulent strain of P. syringae DC3000 carrying the avrRpt2 on plasmid PV288 were used as positive controls (Kunkel et al., 1993; Ton et al., 2002). The histochemical assay was performed as described by Sundaresan et al. (1995) with slight modifications (Sundaresan et al., 1995). Plants were immersed in staining buffer (50 mM sodium phosphate pH7, 10 mM EDTA, 0.1% Triton X-100, 100 μg/ml chloramphenicol, 5 mM potassium ferricyanide and 0.5 mg/ml 5-bromo-4-chloro-3-indolyl-β-D-glucuronide (X-Glc). Plants were then vacuum infiltrated, incubated overnight at 37° C., and destained with 70% ethanol.
# To conduct the quantitative GUS fluorogenic assay, whole plants were flash-frozen in liquid N2 and crushed. The fluorogenic assay and protein extraction were done as described by (Jefferson et al, 1987). Protein concentration of the samples was determined using a BCA protein assay kit (PIERCE, Rockford, Ill.).
smiles,measurement,setting,value
C=C [ethylene],Endophytic colonization in plants exposed to C2H4 or ACC for the same time period,"[1]; 5 μM, Kp342",No difference in endophytic colonization
same,Time of application needed for maximal inhibition of endophytic colonization,[1]; C2H4 5 μM applied from one day prior to up to 6 days after inoculation,"prior to, or at the time of inoculation"
same,Time after exposure at which effects on endophytic colonization become significant,[1]; Kp342,96 h
"NC1(C(=O)O)CC1 [ACC, 1-aminocyclopropane-1-carboxylic acid]",Decline in number of cells within wheat roots,Triticum aestivum roots; 14028 cells,1.2 orders of magnitude
same,Decline in number of cells within wheat roots,Triticum aestivum roots; Kp342 cells,1.85 orders of magnitude
same,Number of Kp342 cells within roots over time with ACC treatment,"[1]; 5 μM ACC at inoculation, 10^2 cells of Kp342 per plant, days 0-6","statistically different from the controls on days 4, 5, and 6; also recorded: does not change significantly with ACC treatment until four days after inoculation"
same,Reduction of endophytic colonization,"[2]; colonization by S. typhimurium 14028, wild-type M. sativa, ACC in growth media (5 μM)",four
same,Decrease of endophytic colonization,"[2]; wild-type strain (14028), FIG. 6",over two orders of magnitude
O=C(O)c1ccccc1O [salicylic acid],PR1::GUS induction / expression,PR1::GUS,strongly induced
"CC1=CC1 [1-MCP, 1-methylcyclopropene]",Endophytic colonization upon treatment,"[1]; 1 ppm 1-MCP, regardless of presence or absence of exogenous ACC, Kp342",significantly higher endophytic colonization
same,Effect on the ACC-induced reduction in endophytic colonization of alfalfa,"[2]; 1 ppm 1-MCP, 5 μM ACC",reversed the reduction in endophytic colonization of alfalfa observed with ACC

# Source: patent publication US20090137390A1, “Materials and methods for enhancing nitrogen fixation in plants” (priority 2004, published 2009)
